Measured values: ChEMBL document CHEMBL1201862, “PubChem BioAssay data set” (2004)
The source made the active and inactive calls.

What was measured:
[1] = target: Cytochrome P450 3A4 (Homo sapiens, UniProt P08684); details: Potency;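 also: confirmatory qHTS run detecting inhibitors and substrates of CYP3A4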
[2] = P. falciparum Dd2 growth inhibitors, dose response, SYBR Green, cherry-picked samples (AID 1159567); type: functional, cell-based
[3] = target: T1, Ubiquitin-conjugating enzyme E2 N (Homo sapiens, UniProt P61088); type: functional;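 also: Dose-response confirmation in a TR-FRET assay detecting UBC13-driven polyubiquitin chain formation, inhibition measured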
T1 sequence (P61088 whole entry): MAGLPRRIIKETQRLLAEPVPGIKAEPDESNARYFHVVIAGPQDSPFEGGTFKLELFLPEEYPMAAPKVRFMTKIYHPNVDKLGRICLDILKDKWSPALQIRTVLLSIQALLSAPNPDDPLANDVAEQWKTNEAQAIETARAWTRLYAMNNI

[4] = target: T2, Calpain-2 catalytic subunit (Sus scrofa, UniProt P43367); experiment: pig calpain II inhibitor potency, dose response, biochemical, fluorogenic peptide substrate (AID 1420); type: functional
T2 sequence (P43367 whole entry): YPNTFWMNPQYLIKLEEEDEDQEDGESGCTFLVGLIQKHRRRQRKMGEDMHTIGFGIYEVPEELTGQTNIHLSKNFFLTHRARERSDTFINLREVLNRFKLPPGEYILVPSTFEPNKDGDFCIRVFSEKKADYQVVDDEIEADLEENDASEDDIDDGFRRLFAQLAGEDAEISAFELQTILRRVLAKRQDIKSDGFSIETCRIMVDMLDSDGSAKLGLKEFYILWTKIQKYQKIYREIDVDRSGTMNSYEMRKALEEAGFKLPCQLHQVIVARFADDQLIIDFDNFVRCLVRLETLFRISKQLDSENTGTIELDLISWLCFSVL

[5] = target: T3, Zinc finger protein mex-5 (Caenorhabditis elegans, UniProt Q9XUB2); experiment: MEX-5/TCR-2 RNA interaction inhibitors, dose response, biochemical, C. elegans, fluorescence polarization (AID 1960)
T3 sequence (Q9XUB2 whole entry): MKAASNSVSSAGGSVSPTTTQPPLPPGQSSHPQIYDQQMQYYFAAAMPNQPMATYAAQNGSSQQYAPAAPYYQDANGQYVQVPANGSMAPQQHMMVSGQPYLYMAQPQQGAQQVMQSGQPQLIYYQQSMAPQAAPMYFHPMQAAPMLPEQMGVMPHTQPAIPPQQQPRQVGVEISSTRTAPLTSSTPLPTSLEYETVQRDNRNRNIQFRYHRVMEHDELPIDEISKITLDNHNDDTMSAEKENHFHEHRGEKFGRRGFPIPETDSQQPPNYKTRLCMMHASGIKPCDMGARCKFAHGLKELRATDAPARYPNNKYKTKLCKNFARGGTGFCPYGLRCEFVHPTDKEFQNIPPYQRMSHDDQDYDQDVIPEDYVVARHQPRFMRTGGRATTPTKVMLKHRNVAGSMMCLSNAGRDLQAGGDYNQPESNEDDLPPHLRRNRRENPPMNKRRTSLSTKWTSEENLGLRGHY

[6] = target: T4, RNA-binding protein pos-1 (Caenorhabditis elegans, UniProt G5EF15); experiment: inhibitors of POS-1/mex-3 RNA binding, dose response, biochemical, fluorescence polarization (AID 1964);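 also: purified POS-1 fused to maltose binding protein made in E. coli; potency of compounds blocking POS-1 binding to fluorescent RNA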
T4 sequence (G5EF15 whole entry): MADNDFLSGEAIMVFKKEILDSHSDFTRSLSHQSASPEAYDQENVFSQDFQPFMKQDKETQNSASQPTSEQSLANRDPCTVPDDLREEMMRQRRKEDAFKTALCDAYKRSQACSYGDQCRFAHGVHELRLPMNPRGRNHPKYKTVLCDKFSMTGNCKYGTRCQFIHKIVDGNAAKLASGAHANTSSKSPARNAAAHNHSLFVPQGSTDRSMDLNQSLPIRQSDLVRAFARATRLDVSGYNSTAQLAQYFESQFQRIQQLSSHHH

[7] = inhibitors of intracellular T. cruzi replication, confirmation, NIH3T3 host cells, beta-gal luminescence (AID 2044); type: functional, cell-based;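 also: intracellular parasites grown in NIH/3T3 mouse fibroblasts as host cells; luminescent beta-galactosidase reporter signal from transgenic T. cruzi replicating inside host cells; inhibitors lower the luminescence signal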
[8] = cytotoxicity toward NIH3T3 fibroblasts, dose response, counter-screen, cell-based, ATP luminescence, mouse fibroblasts (AID 2010); type: functional;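 also: cells exposed to compound for about 90 hours before reading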
[9] = cells; type: functional
[10] = target: T5, Streptokinase A (Streptococcus pyogenes serotype M1, UniProt P10520); experiment: S. pyogenes streptokinase expression inhibitors, potency, dose response, plasminogen activation absorbance, OD405 (AID 1914); type: functional, Streptococcus pyogenes M1 GAS;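 also: secreted streptokinase activity via plasminogen activation per viability signal from cell pellet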
T5 sequence (P10520 whole entry): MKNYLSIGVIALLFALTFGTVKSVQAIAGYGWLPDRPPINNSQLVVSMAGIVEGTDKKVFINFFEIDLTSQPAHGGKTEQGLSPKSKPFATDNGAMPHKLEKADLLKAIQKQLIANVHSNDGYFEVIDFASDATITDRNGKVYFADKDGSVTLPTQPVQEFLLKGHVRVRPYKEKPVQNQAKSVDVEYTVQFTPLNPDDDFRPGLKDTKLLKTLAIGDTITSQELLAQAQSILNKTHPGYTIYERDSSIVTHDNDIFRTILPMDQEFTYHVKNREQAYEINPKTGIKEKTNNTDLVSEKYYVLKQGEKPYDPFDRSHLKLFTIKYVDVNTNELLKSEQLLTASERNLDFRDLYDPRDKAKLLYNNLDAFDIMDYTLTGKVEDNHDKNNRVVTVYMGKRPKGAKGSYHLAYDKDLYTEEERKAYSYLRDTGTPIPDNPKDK

[11] = tested on: Streptococcus sp. 'group A'; experiment: growth inhibition of control SK(-) GAS strain, dose response, counter-screen for streptokinase expression inhibitor project, luminescence, kanamycin, BacTiterGlo, confirmation (AID 1900); type: functional, organism-based
[12] = tested on: Streptococcus; experiment: Group A Streptococcus viability loss, dose response, counter-screen for streptokinase expression inhibitor project, luminescence, BacTiterGlo (AID 1915); type: functional, organism-based;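 also: potency for reduction of bacterial viability or growth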
[13] = inhibitors of clade B AD8 Env fusion, dose response, cell-based, cherry-pick (AID 652062); type: functional;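 also: luciferase signal from cell-cell fusion driven by HIV-1 clade B AD8 Env; potency is for inhibitors of fusion seen as a drop in luminescence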
[14] = target: Cytochrome P450 2D6 (Homo sapiens, UniProt P10635);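 also: CYP2D6 member of a cytochrome P450 panel assay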
[15] = target: Cytochrome P450 2C19 (Homo sapiens, UniProt P33261); experiment: Cytochrome panel assay with activity outcomes. Panel member name: p450-cyp2c19 Compounds with AC50 equal or less than 10 uM are considered active; type: functional; details: read-out: AC50
[16] = THP-1 cell cytotoxicity, dose response, cytotoxicity control for non-replicating M. tuberculosis project (AID 489025); type: functional

Cytochrome P450 3A4, sequence (P08684 whole entry): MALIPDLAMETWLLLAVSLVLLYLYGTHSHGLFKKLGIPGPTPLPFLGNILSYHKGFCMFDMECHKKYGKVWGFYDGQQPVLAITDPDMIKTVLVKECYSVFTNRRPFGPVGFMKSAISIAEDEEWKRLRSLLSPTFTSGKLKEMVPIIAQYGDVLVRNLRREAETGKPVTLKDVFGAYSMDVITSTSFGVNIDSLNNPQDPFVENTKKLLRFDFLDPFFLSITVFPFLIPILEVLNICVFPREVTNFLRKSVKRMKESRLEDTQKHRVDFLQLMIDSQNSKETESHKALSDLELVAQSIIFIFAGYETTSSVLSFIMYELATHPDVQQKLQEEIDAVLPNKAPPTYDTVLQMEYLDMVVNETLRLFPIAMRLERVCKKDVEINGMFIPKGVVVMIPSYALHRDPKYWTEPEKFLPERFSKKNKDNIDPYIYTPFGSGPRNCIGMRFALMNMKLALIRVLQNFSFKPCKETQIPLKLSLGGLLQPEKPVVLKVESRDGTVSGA
Cytochrome P450 2C19, sequence (P33261 whole entry): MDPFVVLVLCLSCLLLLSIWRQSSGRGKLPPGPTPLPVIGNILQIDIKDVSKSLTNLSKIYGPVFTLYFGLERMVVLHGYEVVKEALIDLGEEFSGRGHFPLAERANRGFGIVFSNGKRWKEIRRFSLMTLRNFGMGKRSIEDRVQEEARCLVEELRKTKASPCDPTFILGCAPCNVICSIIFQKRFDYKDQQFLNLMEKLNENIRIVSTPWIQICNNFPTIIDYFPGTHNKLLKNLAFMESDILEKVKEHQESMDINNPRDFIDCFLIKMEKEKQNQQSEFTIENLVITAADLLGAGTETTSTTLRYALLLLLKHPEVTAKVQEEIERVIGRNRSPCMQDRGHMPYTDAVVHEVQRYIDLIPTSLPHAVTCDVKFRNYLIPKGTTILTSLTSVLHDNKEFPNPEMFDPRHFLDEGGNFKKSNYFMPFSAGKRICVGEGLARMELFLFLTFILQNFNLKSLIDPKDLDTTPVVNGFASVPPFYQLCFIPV
Cytochrome P450 2D6, sequence (P10635 whole entry): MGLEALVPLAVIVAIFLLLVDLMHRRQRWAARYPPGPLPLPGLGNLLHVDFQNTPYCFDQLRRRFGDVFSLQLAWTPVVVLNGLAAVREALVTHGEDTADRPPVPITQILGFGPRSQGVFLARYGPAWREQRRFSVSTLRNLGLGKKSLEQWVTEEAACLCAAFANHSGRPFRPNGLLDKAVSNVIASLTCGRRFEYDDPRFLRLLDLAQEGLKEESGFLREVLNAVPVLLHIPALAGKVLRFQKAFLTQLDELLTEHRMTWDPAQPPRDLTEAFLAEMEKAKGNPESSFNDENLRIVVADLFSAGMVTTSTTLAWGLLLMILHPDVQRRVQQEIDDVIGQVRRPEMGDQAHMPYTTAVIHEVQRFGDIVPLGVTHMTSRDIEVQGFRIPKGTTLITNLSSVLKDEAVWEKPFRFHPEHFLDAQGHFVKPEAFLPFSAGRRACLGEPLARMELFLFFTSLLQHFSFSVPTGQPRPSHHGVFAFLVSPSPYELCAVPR

## CCCCNc1nc(C)nc2c1nc(-c1ccccc1)n2CCCN(CC)CC
[1]
  AC50: 25.1 µM (inconclusive)

## COc1cc(-c2coc3cc(OCc4ccccc4)c(OC)c(O)c3c2=O)cc(O)c1OC [IRIGENIN, 7-BENZYL ETHER]
[1]
  AC50: 15.8 µM (inconclusive)

## COc1ccc2c3c([nH]c2c1)[C@H](CO)N(Cc1nccs1)CC31CN(Cc2cccnc2)C1
[2]
  AC50: 10.7 µM (active)

## Cn1nc(N)c2c(-c3ccc(Cl)cc3)c(C#N)c(N)nc21
[3]
  IC50: > 20 µM (inactive)

## O=C(c1ccc(COc2ccc(Cl)cc2)cc1)N1CCCCC1
[4]
  IC50: 10.4 µM (not active)

## CC1(OC(=O)c2ccc(Cl)nc2)C(=O)C=C2C=C(c3ccsc3)OC=C2C1=O (configuration not stated)
[5]
  EC50: 41.9 µM (active)
[6]
  EC50: 54.4 µM (active)

## COc1ccc(CNc2oc(COc3ccc(Cl)cc3)nc2C#N)cc1
[7]
  EC50: 1.36 µM (active)
[8]
  EC50: > 60 µM (not active)
[4]
  IC50: 4 µM (not active)

## CCOC(=O)Cc1nc2cc(Cl)ccc2o1
[9]
  IC50: 18.6 µM (active)

## CC(=O)OC1C2C(OC(=O)Cc3ccccc3)C(C)CC2(OC(C)=O)C(=O)/C(C)=C/C2C(CC[C@@]13CO3)C2(C)C (some centres not stated)
[1]
  AC50: 3.98 µM (inconclusive)

## Cc1cccc(Cn2nc(-n3cccc3)c3c(C)cc(C)nc32)c1
[10]
  EC50: 15.1 µM (active)
[11]
  EC50: 12 µM (active)
[12]
  EC50: > 150 µM (not active)

## Cc1ccccc1S(=O)(=O)N1C[C@@H]2N[C@H](C1)[C@@H]2c1ccc(-c2ccc(C#N)cc2)cc1
[2]
  AC50: 3.32 µM (active)

## CCC(=O)NC(=S)NNC(=O)c1ccc(OC)cc1
[3]
  IC50: > 20 µM (inactive)

## C=CCn1c(COc2ccccc2)nnc1SCC(=O)N/N=C/c1cc(Cl)ccc1O
[10]
  EC50: > 150 µM (not active)
[11]
  EC50: 4.37 µM (active)
[12]
  EC50: 48.1 µM (active)

## Cc1ccc(CCC(=O)Nc2ccc(C)c(C)c2)o1
[9]
  IC50: 49.8 µM (active)

## O=c1cc(CO)oc(C(Nc2cccc([N+](=O)[O-])c2)c2ccccn2)c1O (configuration not stated)
[3]
  IC50: > 20 µM (inactive)

## O=C(C1=C(O)C(=O)N(c2ncccn2)C1c1cccs1)c1ccco1 (configuration not stated)
[5]
  EC50: 31.5 µM (active)
[6]
  EC50: 39.9 µM (active)

## CCC(C)[C@@H](N)C(=O)N/N=C/c1cccc2nccnc12 (some centres not stated)
[5]
  EC50: > 300 µM (not active)
[6]
  EC50: > 300 µM (not active)

## Nc1nc(NC(=O)/C=C/c2ccc(F)cc2)nn1-c1ccccc1
[10]
  EC50: > 150 µM (not active)
[11]
  EC50: 3.91 µM (active)
[12]
  EC50: > 150 µM (not active)

## COC1=CC(=O)C(O)=C/C1=C\C=C\c1ccccc1 [OBTUSAQUINONE]
[1]
  AC50: 25.1 µM (inconclusive)

## COC(=O)CNC(=O)C1(C)C=CC2(CCCCC2)N1C(C)=O (configuration not stated)
[1]
  AC50: 25.1 µM (inconclusive)

## O=C(CSc1nnc(CNC(=O)c2ccccc2)o1)NCCc1ccccc1
[10]
  EC50: > 150 µM (not active)
[11]
  EC50: > 150 µM (not active)
[12]
  EC50: > 150 µM (not active)

## COc1ccc2c3c(n(C)c2c1)[C@H](CO)N(C(=O)c1cccc(F)c1)CC31CN(C(=O)c2cccc(F)c2)C1
[2]
  AC50: 9.32 µM (active)

## CCCCOc1ccc(S(=O)(=O)Nc2cccnc2)cc1
[13]
  AC50: 7.89 µM (active)
[14]
  AC50: 25.1 µM (inconclusive)
[15]
  AC50: 0.355 µM (inconclusive)

## O=C(NCc1cccnc1)c1ccccc1CCc1ccccc1
[4]
  IC50: 18.8 µM (not active)

## COc1ccccc1/C=N/NC(=O)c1ccc(Br)cc1
[4]
  IC50: 45.9 µM (not active)

## COc1ccc(COc2cccc(C=O)c2)cc1
[9]
  IC50: 30.9 µM (active)

## COc1ccc2c3c(n(C)c2c1)[C@H](CO)N(C(=O)Nc1ccc(F)cc1)CC31CN(Cc2cccnc2)C1
[2]
  AC50: 3.4 µM (active)

## O=C(C1CCC(=O)N1C1CCCCC1)N1CCC2(CC1)OCCO2 (configuration not stated)
[4]
  IC50: 8.43 µM (not active)

## COC(=O)c1cccc(NC(=O)Cc2coc3cc(OC)ccc23)c1
[3]
  IC50: > 20 µM (inactive)

## Nc1cc(Cl)c([N+](=O)[O-])cc1O
[1]
  AC50: 31.6 µM (inconclusive)

## N#Cc1ccc(-c2ccc([C@@H]3[C@@H]4CN(Cc5cocn5)C[C@H]3N4)cc2)cc1
[2]
  AC50: 3.73 µM (active)

## C=CCn1c(=O)/c(=C/c2ccc(C)o2)s/c1=C(/C#N)C(=O)c1ccccc1
[5]
  EC50: > 300 µM (inconclusive)

## O=P(N[C@@H](c1ccccc1)[C@@H]1C[C@H]1CO)(c1ccccc1)c1ccccc1
[1]
  AC50: 15.8 µM (inconclusive)

## COC(=O)c1c(NC(NC(C)=O)C(Cl)(Cl)Cl)sc2c1CCCC2 (configuration not stated)
[4]
  IC50: > 50 µM (not active)

## N#C/C(=C(/O)c1cc2ccccc2o1)c1nc2ccccc2s1
[11]
  EC50: 9.28 µM (active)
[5]
  EC50: > 300 µM (not active)
[12]
  EC50: 42.4 µM (active)
[6]
  EC50: > 300 µM (not active)

## CCN(CC)CCn1c(-c2ccccc2)nc2c(NC3CCCCC3)nc(C)nc21
[1]
  AC50: 15.8 µM (inconclusive)

## N#CC1=C(N)OC2=C(C(=O)CCC2)C1c1ccc2c(c1)OCO2 (configuration not stated)
[5]
  EC50: > 300 µM (not active)
[6]
  EC50: > 300 µM (not active)

## CCCC/N=C(/C)c1c(O)oc2ccccc2c1=O
[4]
  IC50: 19.7 µM (not active)

## C[C@@H]1CC2(OC3C[C@@]4(C)C5=CC[C@H]6C(C)(C)C(O[C@@H]7OC[C@@H](O)[C@H](O)[C@H]7O)CC[C@@]67C[C@@]57CC[C@]4(C)C31)OC(O)C1(C)OC21 (some centres not stated)
[1]
  AC50: 5.01 µM (inconclusive)

## CC(=O)Nc1ccc2c(c1)C(=O)N(c1cccc(C)c1)C2=O
[3]
  IC50: > 20 µM (inactive)

## CCN1/C(=C/C(C)=O)Sc2ccc(OC)cc21
[1]
  AC50: 25.1 µM (inconclusive)

## CC1(C)Cc2c(c(N3CCOCC3)nc3sc4c(=O)nc[nH]c4c23)CS1
[3]
  IC50: > 20 µM (inactive)

## COC(=O)C1=C(C)N(CC2CC2)C(NCc2cccc(Cl)c2)=N[C@H]1c1ccccc1
[16]
  CC50: 22.5 µM (active)
